Counter-ions that a name gives are not always drawn.
Tests used:
GABA uptake [1] = conditions: from the synaptic cleft into presynaptic nerve terminals and glial cells; cited from earlier work
[^3 H]-GABA uptake = in vitro inhibition of [3H]-GABA uptake, rat cortical tissue homogenate (method of Fjalland); format: biochemical, Male wistar rat; conditions: 40 mM tris HCl pH 7.5, 60 minutes at 30° C.
Experimental: Values for in vitro inhibition of [^3 H]-GABA uptake for the invention compounds were assessed essentially by the method of Fjalland (Acta Pharmacol. Toxicol. 1978, 42, 73-76). Male wistar rat cortical tissue was gently homogenized by hand using a glass/PTFE homogenizer in 10 volumes of 0.32M sucrose. Incubation was performed in a 40 mM tris HCl buffer (pH 7.5 at 30° C.) containing […], 4 mM MgSO4, […] and 10 mM glucose, for 60 minutes at 30° C. Values for inhibition of GABA uptake for some representative compounds are recorded in Table I.

GABA uptake [2] = conditions: oral; Yunger, L. M. et al., J. Pharm. Exp. Ther. 1984, 228, 109; cited from earlier work

| SMILES | IC50 ([^3 H]-GABA uptake) [µM] | orally active inhibitor of GABA uptake (GABA uptake [2]) | also measured |
| --- | --- | --- | --- |
| O=C(O)C1CCCNC1 (stereo not shown) [3-piperidine-carboxylic acid] |  |  | inhibitor of GABA uptake (GABA uptake [1]): well-known and potent inhibitor of GABA uptake |
| O=C(O)C1CCCN(CCC=C(c2ccccc2)c2ccccc2)C1 (stereo not shown) [SK&F 89976A, N-(4,4-diphenyl-3-buten-1-yl)nipecotic acid] |  | orally active inhibitors of GABA uptake |  |
| O=C(O)C1=CCCN(CCC=C(c2ccccc2)c2ccccc2)C1 [SK&F 100330A, N-(4,4-diphenyl-3-buten-1-yl)guvacine] |  | orally active inhibitors of GABA uptake |  |
| O=C(O)CC1CCN(CCC=C(c2ccccc2)c2ccccc2)C1 (stereo not drawn) [SK&F 100561, N-(4,4-diphenyl-3-buten-1-yl)-homo-β-proline] |  | orally active inhibitors of GABA uptake |  |
| O=C(O)C1CCCN(CCC=C(c2ccccc2)c2cccs2)C1 (stereo not shown) [SK&F 100604J, N-(4-phenyl-4-(2-thienyl)-3-buten-1-yl)nipecotic acid] |  | orally active inhibitors of GABA uptake |  |

Second part, led by results:

| IC50 ([^3 H]-GABA uptake) [µM] | SMILES | orally active inhibitor of GABA uptake (GABA uptake [2]) | also measured |
| --- | --- | --- | --- |
| 64 | O=C(O)[C@@H]1CCCN(CCOc2ccccc2)C1 [Example 1, (R)-1-(2-Phenoxyethyl)-3-piperidinecarboxylic acid hydrochloride] |  |  |
| 24 | O=C(O)[C@@H]1CCCN(CCCCOc2ccccc2)C1 [Example 2, (R)-1-(4-Phenoxy-1-butyl)-3-piperidinecarboxylic acid hydrochloride] |  |  |
| 6.7 | O=C(O)[C@@H]1CCCN(CCOc2ccccc2Cc2ccccc2)C1 [Example 3, (R)-1-(2-(2-Benzylphenoxy)ethyl)-3-piperidinecarboxylic acid hydrochloride] |  |  |
| 5.6 | O=C(O)[C@@H]1CCCN(CCOc2cccc(-c3ccccc3)c2)C1 [Example 4, (R)-1-(2-(3-Phenylphenoxy)ethyl)-3-piperidinecarboxylic acid hydrochloride] |  |  |
| 5.6 | O=C(O)[C@@H]1CCCN(CCOc2ccccc2-c2ccccc2)C1 [Example 5, (R)-1-(2-(2-Phenylphenoxy)ethyl)-3-piperidinecarboxylic acid hydrochloride] |  |  |
